Results from patent publication US20040259079A1, “Substantially complete ribozyme libraries” (priority 1998, published 2004).
Like-named read-outs stand apart in the source and are kept apart here.

Columns and labels:
Type in all cases: cell-based
[1] = tested on: 5′TK cells (HeLa with HCV IRES-tk reporter); assay: Gancyclovir sensitivity of 5′TK reporter cells, surviving colonies; design: key to number of surviving cell colonies: TMTC = too many colonies to count
From the text: For gene identification, this reporter is stably transfected into HeLa cells (where HCV IRES activity has already been documented using hygromycin selection (FIG. 23). This “parental” cell population is called 5′TK.
Expression of the tk gene in these cells via the IRES confers sensitivity to the toxic effects of gancyclovir. Introduction of a ribozyme that inhibits expression of a cellular factor involved in IRES translation would result in a loss of tk expression and this cell would become gancyclovir resistant (see FIG. 23). As a control, a similar reporter plasmid was constructed without the IRES (or with a non-functioning mutant IRES), to verify that tk expression is IRES-dependent. To facilitate selection of the correct ribozyme from the library, it was necessary to start with a concentration of gancyclovir that effectively kills all parental cells, thus assuring a low background of false positives. To this end, 7.5×10^5 5′TK cells were exposed to various concentrations of gancyclovir and the number of surviving cell colonies is shown below. Due to anticipated heterogeneity in the original parental population, individual cell clones of the parental were also isolated and gancyclovir sensitivity was assayed as shown below in Table 12.

[2] = tested on: 2008 cell line (ovarian cell line sensitive to cisplatin); assay: Cisplatin selection of vector or library transfected cells, surviving colonies
Description: Approximately 2×10^7 of the 2008 cell line (ovarian cell line sensitive to cisplatin) and UMscc10b were transfected by 200 μg of pAAV6Clib described in Example 2(A) using lipofectamine. The transfection efficiencies were from 27% to 35% by eGFP expression.
After transfection, about 5.4×10^6 to 7×10^6 of cells (1.5 to 1.9 of library equivalent ) containing library DNA were selected by multiple rounds of addition of cisplatin at increasing concentrations. […] Colonies derived from the library transfected cells growing out of high concentration of cisplatin were expanded.
To confirm the library transfected cells after selection are indeed more resistant to cisplatin than either the vector transfected or parental 2008 cells, we compared the killing curve of the cisplatin of there three cell population. […] Ribozyme sequences were rescued from the library transfected cells which were selected at high concentration were rescued by PCR by the method described in Example D and identified by sequencing. After confirming the function of ribozymes rescued from the resistant cells, we will identify genes controlling cisplatin sensitivity again based on the sequence of the ribozyme binding arms and GUC by the methods described in the next example.

[3] = tested on: HIV; assay: HIV challenge of stable Molt4/8 cell lines, P24 production (SAVA); conditions: for % inhibition of HIV replication: Table 19, U5 ribozyme from RNA polymerase III promoters, P24 at 7 days, vs ALNL-6 control
Description: Promoter efficacy was measured by using them to express a ribozyme against the US region of HIV and measuring the resulting anti-HIV effect for each promoter. […] The HIV protease inhibitor, indinavir, was included in these experiments as a positive control at 10 and 100 nM concentrations.

[4] = tested on: A549 and HeLa cells; assay: Puromycin selection of transiently transfected cells; conditions: cells receiving puromycin resistance genes (pPur); 600ng/ml puromycin
Description: Drug selection is typically used to obtain cells which stably express the drug resistance gene; however, we have found conditions under which cells transfected with puromycin-expressing vectors can survive for several days in the presence of puromycin, even when not stably transfected or transduced. During the same time period, untransfected cells are rapidly killed by the drug. Plasmids encoding puromycin resistance genes (pPur) were transfected into A549 and HeLa cells, and 600ng/ml puromycin was added to the culture medium. As a control, cells were transfected with plasmids lacking puromycin resistance genes (AMFT). The number of cells was determined at 1-day intervals following transfection. Cells lacking the puromycin resistance gene were killed within 2 or 3 days after the addition of puromycin, whereas cells receiving puromycin resistance genes survived as long as 7-9 days (FIG. 27). Target validation could therefore be performed on these transiently transfected cells between 2-9 days following puromycin selection. Other drugs which rapidly kill cells can also be employed in this type of experiment.

[5] = tested on: melanoma cell line G-361; assay: TRAIL killing of G-361 cells; conditions: 200 ng/ml TRAIL; 2 days after adding; most efficient condition
Description: Selection of ribozymes (from the Rz library) capable of blocking TRAIL-induced apoptosis was investigated in the melanoma cell line G-361 (ATCC #CRL-1424). To determine their initial sensitivity to TRAIL, G-361 cells were plated at a density of 1×10^4 cells/cm^2. Recombinant TRAIL (Alexis Biochemicals) was applied at concentrations between 10 and 200 ng/ml for anywhere from 16 hours to 2 days.

## Nc1nc(O)c2ncn(COC(CO)CO)c2n1 [Gancyclovir, gancyclovir]
[1]; Clone 1, gancyclovir 20 μM
  number of surviving cell colonies: 20
[1]; Clone 1, gancyclovir 40 μM
  number of surviving cell colonies: 4
[1]; Clone 1, gancyclovir 80 μM
  number of surviving cell colonies: 0
[1]; Clone 2, gancyclovir 20 μM
  number of surviving cell colonies: 0
[1]; Clone 2, gancyclovir 40 μM
  number of surviving cell colonies: 0
[1]; Clone 2, gancyclovir 80 μM
  number of surviving cell colonies: 0
[1]; Clone 3, gancyclovir 20 μM
  number of surviving cell colonies: 0
[1]; Clone 3, gancyclovir 40 μM
  number of surviving cell colonies: 0
[1]; Clone 3, gancyclovir 80 μM
  number of surviving cell colonies: 0
[1]; Clone 4, gancyclovir 20 μM
  number of surviving cell colonies: TMTC
[1]; Clone 4, gancyclovir 40 μM
  number of surviving cell colonies: TMTC
[1]; Clone 4, gancyclovir 80 μM
  number of surviving cell colonies: 60
[1]; Clone 5, gancyclovir 20 μM
  number of surviving cell colonies: 0
[1]; Clone 5, gancyclovir 40 μM
  number of surviving cell colonies: 0
[1]; Clone 5, gancyclovir 80 μM
  number of surviving cell colonies: 0
[1]; Parental 5′TK, gancyclovir 4 μM, 7.5×10^5 cells exposed
  number of surviving cell colonies: 109
[1]; Parental 5′TK, gancyclovir 8 μM
  number of surviving cell colonies: 38
[1]; Parental 5′TK, gancyclovir 12 μM
  number of surviving cell colonies: 17
[1]; Parental 5′TK, gancyclovir 16 μM
  number of surviving cell colonies: 15
[1]; Parental 5′TK, gancyclovir 20 μM
  number of surviving cell colonies: 9
[1]; Parental 5′TK, gancyclovir 40 μM
  number of surviving cell colonies: 7
[1]; Parental 5′TK, gancyclovir 60 μM
  number of surviving cell colonies: 2
[1]; Parental 5′TK, gancyclovir 80 μM
  number of surviving cell colonies: 2
[1]; Parental 5′TK, gancyclovir 100 μM
  number of surviving cell colonies: 1
[1]; individual clones #2, 3 and 5, as low as 20 μM
  sensitivity to gancyclovir (in words): highly sensitive

## N.N.[Cl][Pt][Cl] [cisplatin]
[2]; Library transfected cells (pAAV6Clib), cisplatin 4 uM, after multiple rounds of selection
  % of surviving colonies: 18.4%
[2]; Library transfected cells, cisplatin 5 uM
  % of surviving colonies: 10.3%
[2]; Library transfected cells, cisplatin 6 uM
  % of surviving colonies: 5.2%
[2]; Library transfected cells, cisplatin 7 uM
  % of surviving colonies: 2.3%
[2]; Library transfected cells, cisplatin 8 uM
  % of surviving colonies: 0%
[2]; vector transfected cells, cisplatin 4 uM, after multiple rounds of selection
  % of surviving colonies: 2.14%
[2]; vector transfected cells, cisplatin 5 uM
  % of surviving colonies: 0.97%
[2]; vector transfected cells, cisplatin 6 uM
  % of surviving colonies: 0.79%
[2]; vector transfected cells, cisplatin 7 uM
  % of surviving colonies: 0%
[2]; vector transfected cells, cisplatin 8 uM
  % of surviving colonies: 0%

## CC(C)(C)NC(=O)[C@@H]1CN(Cc2cccnc2)CCN1C[C@@H](O)C[C@@H](Cc1ccccc1)C(=O)N[C@H]1c2ccccc2C[C@H]1O [indinavir]
[3]; Human immunodeficiency virus 1, MOLT-4, Table 19, positive control at 10 nM, MOI 0.02, read-out: % inhibition of HIV replication
  inhibition at 0.01 µM: 94.7 ± 2.8%
[3]; Human immunodeficiency virus 1, MOLT-4, Table 19, positive control at 10 nM, MOI 0.04, read-out: % inhibition of HIV replication
  inhibition at 0.01 µM: 85.7 ± 4%
[3]; Human immunodeficiency virus 1, MOLT-4, Table 19, positive control at 10 nM, MOI 0.08, read-out: % inhibition of HIV replication
  inhibition at 0.01 µM: 61.6 ± 9.5%
[3]; Human immunodeficiency virus 1, MOLT-4, Table 19, positive control at 100 nM, MOI 0.02, read-out: % inhibition of HIV replication
  inhibition at 0.1 µM: 97.8 ± 1.7%
[3]; Human immunodeficiency virus 1, MOLT-4, Table 19, positive control at 100 nM, MOI 0.04, read-out: % inhibition of HIV replication
  inhibition at 0.1 µM: 95.9 ± 0.2%
[3]; Human immunodeficiency virus 1, MOLT-4, Table 19, positive control at 100 nM, MOI 0.08, read-out: % inhibition of HIV replication
  inhibition at 0.1 µM: 89.5 ± 1.2%
[3]; Human immunodeficiency virus 1, MOLT-4, Table 20, positive control at 10 nM, MOI 0.02, read-out: % inhibition (anti-HIV effect)
  inhibition at 0.01 µM: 81.3 ± 1.2%
[3]; Human immunodeficiency virus 1, MOLT-4, Table 20, positive control at 10 nM, MOI 0.04, read-out: % inhibition (anti-HIV effect)
  inhibition at 0.01 µM: 70.9 ± 2.1%
[3]; Human immunodeficiency virus 1, MOLT-4, Table 20, positive control at 10 nM, MOI 0.08, read-out: % inhibition (anti-HIV effect)
  inhibition at 0.01 µM: 57.8 ± 4.8%
[3]; Human immunodeficiency virus 1, MOLT-4, Table 20, positive control at 100 nM, MOI 0.02, read-out: % inhibition (anti-HIV effect)
  inhibition at 0.1 µM: 89.1 ± 0.5%
[3]; Human immunodeficiency virus 1, MOLT-4, Table 20, positive control at 100 nM, MOI 0.04, read-out: % inhibition (anti-HIV effect)
  inhibition at 0.1 µM: 86.1 ± 1.9%
[3]; Human immunodeficiency virus 1, MOLT-4, Table 20, positive control at 100 nM, MOI 0.08, read-out: % inhibition (anti-HIV effect)
  inhibition at 0.1 µM: 82 ± 1.2%
[3]; Human immunodeficiency virus 1, MOLT-4, Table 22, 10 nM, MOI 0.02, read-out: % inhibition
  inhibition at 0.01 µM: 74.8 ± 1.5%
[3]; Human immunodeficiency virus 1, MOLT-4, Table 22, 10 nM, MOI 0.04, read-out: % inhibition
  inhibition at 0.01 µM: 73.9 ± 3.6%
[3]; Human immunodeficiency virus 1, MOLT-4, Table 22, 10 nM, MOI 0.08, read-out: % inhibition
  inhibition at 0.01 µM: 68.8 ± 4.5%
[3]; Human immunodeficiency virus 1, MOLT-4, Table 22, 100 nM, MOI 0.02, read-out: % inhibition
  inhibition at 0.1 µM: 98.5 ± 0.5%
[3]; Human immunodeficiency virus 1, MOLT-4, Table 22, 100 nM, MOI 0.04, read-out: % inhibition
  inhibition at 0.1 µM: 95.5 ± 0.6%
[3]; Human immunodeficiency virus 1, MOLT-4, Table 22, 100 nM, MOI 0.08, read-out: % inhibition
  inhibition at 0.1 µM: 93.3 ± 0.4%

## COc1ccc(C[C@H](N)C(=O)N[C@H]2[C@@H](O)[C@H](n3cnc4c(N(C)C)ncnc43)O[C@@H]2CO)cc1 [puromycin]
[4]
  survival time in the presence of puromycin: 7 to 9 days

## Alanine
[3]; MOI 0.02
  % inhibition of HIV replication: 75.7 ± 21%
[3]; MOI 0.04
  % inhibition of HIV replication: 71.0 ± 23%
[3]; MOI 0.08
  % inhibition of HIV replication: 8.7 ± 24%

## Serine
[3]; MOI 0.02
  % inhibition of HIV replication: 96.6%
[3]; MOI 0.04
  % inhibition of HIV replication: 91.8%
[3]; MOI 0.08
  % inhibition of HIV replication: 82.0%

B1: TRAIL: Recombinant TRAIL (Alexis Biochemicals), death receptor ligand (protein, UniProt P50591 1-281, looked up)
Tumor necrosis factor ligand …: MAMMEVQGGPSLGQTCVLIVIFTVLLQSLCVAVTYVYFTNELKQMQDKYSKSGIACFLKEDDSYWDPNDEESMNSPCWQVKWQLRQLVRKMILRTSEETISTVQEKQQNISPLVRERGPQRVAAHITGTRGRSNTLSSPNSKNEKALGRKINSWESSRSGHSFLSNLHLRNGELVIHEKGFYYIYSQTYFRFQEEIKENTKNDKQMVQYIYKYTSYPDPILLMKSARNSCWSKDAEYGLYSIYQGGIFELKENDRIFVSVTNEHLIDMDHEASFFGAFLVG
[5]
  killing of G-361 cells: < 100%
